Reference: patent US10383336B2, “Solutions employing herbicides and buffered amine oxides to kill weeds and related methods” (priority 2015, dated 2019)

Legend:
Grass (mixed types) = experiment: Field trial of formulation components, kill rate 1 year after application (TABLE 2, Jun. 14, 2005, near Warren Pa.); format: in vivo; conditions: no herbicide; single component at % weight: Ethylene Glycol 0.07, 5 Mol Borax 0.044, Boric Acid 0.037, Barlox 12 0.305
Experimental: (§1) On Jun. 14, 2005, further trials were conducted near Warren Pa., USA to evaluate the contribution of certain formulation components to herbicide performance from the Jun. 2, 2004 Buffered Amine Oxide system. The same field trial methods were used. The control was distilled water.
(§2) The two herbicides which were tested were 2,4-D and Glyphosate. They were used in concentrations of 50:1 and 200:1. The vegetations tested were raspberry and grass. The components of the various elements employed in the buffered amine oxide formula are expressed in weight percent of the total buffered amine oxide formula. […] The first three components were tested at 200:1 strength with the Ethylene Glycol used alone, the Ethylene Glycol used in combination with 5 Mol Borax and Ethylene Glycol, 5 Mol Borax and Boric Acid used in combination. None of these killed the weeds.
(§3) Where a “0” appears in a block in TABLE 2, this means there were no kills. Where a block is blank, this means that no measurement was taken.

Raspberry = experiment: as above; format: in vivo; conditions: no herbicide; single component at % weight: Ethylene Glycol 0.07, 5 Mol Borax 0.044, Boric Acid 0.037, Barlox 12 0.305
Experimental: as §1, §2, §3

Row | SMILES | Kill Rate % 1 Year After Application, Grass (Grass (mixed types)) [%] | Kill Rate % 1 Year After Application, Raspberry (Raspberry) [%]
1 | OB(O)O [Boric Acid] | 0 | 0
2 | OCCO [Ethylene Glycol] | 0 | 0
3 | O.O.O.O.O.[Na+].[Na+].[O-]B1OB2OB([O-])OB(O1)O2 [5 Mol Borax] | 0 | 0
